From ChEMBL document CHEMBL1201862, “PubChem BioAssay data set” (2004)
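Assay format: 96-well plates, 48-hour exposure. GI50: concentration for 50% inhibition of growth.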 Calls of active or inactive are those of the source. No stated cut-off is given here; in the data, active = GI50 up to about 1.1 µM and inactive = higher.

How the values were obtained:
Experiment in all cases: NCI-60 cell line screen, 48 h
[1] = test system: SK-MEL-5
[2] = test system: NCI-H460
[3] = test system: U-251
[4] = test system: SF-295
[5] = test system: UACC-62
[6] = test system: NCI-H23
[7] = test system: LXFL 529
[8] = test system: DLD-1
[9] = test system: SK-OV-3
[10] = test system: HCT-116
[11] = test system: DMS-273
[12] = test system: HT-29
[13] = test system: ACHN
[14] = test system: SK-MEL-2
[15] = test system: NCI-H226
[16] = test system: HL-60
[17] = test system: SW-620
[18] = test system: HCT-15
[19] = test system: SNB-19
[20] = test system: M14
[21] = test system: HOP-92
[22] = test system: XF498
[23] = test system: RPMI-8226
[24] = test system: SF-268
[25] = test system: UO-31
[26] = test system: TK-10
[27] = test system: IGROV-1
[28] = test system: SK-MEL-28
[29] = test system: EKVX
[30] = test system: NCI-H522
[31] = test system: OVCAR-5
[32] = test system: SNB-75
[33] = test system: UACC-257
[34] = test system: HCC 2998
[35] = test system: HOP-62
[36] = test system: KM12
[37] = test system: CCRF-CEM
[38] = test system: A498
[39] = test system: CAKI-1
[40] = test system: MOLT-4
[41] = test system: DMS-114
[42] = test system: SN12C
[43] = test system: 786-0
[44] = test system: Malme-3M
[45] = test system: M19-MEL
[46] = test system: COLO 205
[47] = test system: SR
[48] = test system: SF-539
[49] = test system: OVCAR-3
[50] = test system: KM-20L2
[51] = test system: OVCAR-8
[52] = test system: SNB-78
[53] = test system: HOP-18
[54] = test system: K562
[55] = test system: A549
[56] = test system: OVCAR-4
[57] = test system: MCF7
[58] = test system: NCI/ADR-RES
[59] = test system: LOX IMVI
[60] = test system: RXF 393

Measured: GI50

COc1ccc(S(=O)(=O)N/N=C(\C)CN2C(=O)c3ccccc3C2=O)cc1OC
> 100 µM: [18]
inactive: [1] > 100 µM | [2] > 100 µM | [3] > 100 µM | [4] > 100 µM | [5] > 100 µM | [6] > 100 µM | [7] > 100 µM | [8] > 100 µM | [9] > 100 µM | [10] > 100 µM | [11] > 100 µM | [12] > 100 µM | [13] > 100 µM | [14] > 100 µM | [15] > 100 µM | [16] > 100 µM | [17] > 100 µM | [19] > 100 µM | [20] > 100 µM | [21] > 100 µM | [22] > 100 µM | [23] > 100 µM | [24] > 100 µM | [25] > 100 µM | [26] > 100 µM | [27] > 100 µM | [28] > 100 µM | [29] > 100 µM | [30] > 100 µM | [31] > 100 µM | [32] > 100 µM | [33] > 100 µM | [34] > 100 µM | [35] > 100 µM | [36] > 100 µM | [37] > 100 µM | [38] > 100 µM | [39] > 100 µM | [40] > 100 µM | [41] > 100 µM | [42] > 100 µM | [43] > 100 µM | [44] > 100 µM | [45] > 100 µM | [46] > 100 µM | [47] > 100 µM | [48] > 100 µM | [49] > 100 µM | [50] > 100 µM | [51] > 100 µM | [52] > 100 µM | [53] > 100 µM | [54] > 100 µM | [55] > 100 µM | [56] > 100 µM

Nc1[nH]cnc2ncnc1-2 [ADENINE]
inactive: [1] > 96.6 µM | [3] 108 µM | [4] 108 µM | [5] 48.1 µM | [8] 135 µM | [9] > 250 µM | [57] > 21.3 µM | [10] > 250 µM | [11] 81.1 µM | [12] > 121 µM | [14] > 250 µM | [15] 111 µM | [16] 36.6 µM | [17] 231 µM | [21] 146 µM | [22] 9.4 µM | [23] 168 µM | [25] 129 µM | [27] > 250 µM | [28] > 243 µM | [30] 50.7 µM | [31] > 250 µM | [58] 46.2 µM | [32] 121 µM | [33] 200 µM | [59] 140 µM | [34] > 125 µM | [35] 58.9 µM | [36] 153 µM | [38] 7.14 µM | [41] 84.1 µM | [42] 96.2 µM | [60] 30.1 µM | [45] > 141 µM | [46] > 162 µM | [48] 49.7 µM | [50] > 250 µM | [51] 105 µM | [52] 114 µM | [53] 109 µM | [54] > 248 µM | [56] > 126 µM

Cc1ccc(S(=O)(=O)C(C#N)c2nc3ccccc3nc2-n2cccn2)cc1 (stereo not given)
inactive: [2] > 100 µM | [3] > 100 µM | [4] > 100 µM | [6] > 100 µM | [7] > 100 µM | [8] > 100 µM | [9] > 100 µM | [10] > 100 µM | [11] > 100 µM | [12] > 100 µM | [13] > 100 µM | [14] > 100 µM | [15] > 100 µM | [16] > 100 µM | [19] > 100 µM | [20] > 100 µM | [21] > 100 µM | [22] > 100 µM | [23] > 100 µM | [24] > 100 µM | [25] > 100 µM | [26] > 100 µM | [27] > 100 µM | [28] > 100 µM | [29] > 100 µM | [31] > 100 µM | [32] > 100 µM | [33] > 100 µM | [34] > 100 µM | [36] > 100 µM | [37] > 100 µM | [40] > 100 µM | [41] > 100 µM | [42] > 100 µM | [43] > 100 µM | [44] > 100 µM | [45] > 100 µM | [46] > 100 µM | [48] > 100 µM | [49] > 100 µM | [51] > 100 µM | [52] > 100 µM | [53] 86.9 µM | [54] > 100 µM | [55] > 100 µM | [56] > 100 µM
> 100 µM: [18]
